Measurements as given in the supplement of paper PMC8149375.

What was measured:
Details in all cases: treatment: drug + dasatinib (fixed dose, not stated); 5 days
[1] = tested on: ACHN; assay: AUC of dose-response viability curve, drug + dasatinib, normalised to DMSO (arbitrary (AUC of normalised viability)); higher = less growth inhibition
Procedure: (§1)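 Primary HTS combination arm: 8 RCC cell lines treated with 8 doses (up to 10 uM) of each library drug plus a fixed dose of dasatinib (dose not stated) for 5 days; viability read by CellTiter-Glo and normalised to DMSO. GI50 was fitted with XLfit, AUC is the area under the dose-response curve, and minimum viability is the lowest fraction of DMSO viability across doses.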

[2] = tested on: 786-O; assay: as above
Procedure: as §1

[3] = tested on: TK-10; assay: as above
Procedure: as §1

[4] = tested on: UO-31; assay: as above
Procedure: as §1

[5] = tested on: SN12C; assay: as above
Procedure: as §1

[6] = tested on: CAKI-1; assay: as above
Procedure: as §1

[7] = tested on: A498; assay: as above
Procedure: as §1

[8] = tested on: 769-P; assay: as above
Procedure: as §1

[9] = tested on: ACHN; assay: minimum viability across doses, drug + dasatinib, relative to DMSO (fraction); higher = less growth inhibition
Procedure: as §1

[10] = tested on: 786-O; assay: as above
Procedure: as §1

[11] = tested on: TK-10; assay: as above
Procedure: as §1

[12] = tested on: UO-31; assay: as above
Procedure: as §1

[13] = tested on: SN12C; assay: as above
Procedure: as §1

[14] = tested on: CAKI-1; assay: as above
Procedure: as §1

[15] = tested on: A498; assay: as above
Procedure: as §1

[16] = tested on: 769-P; assay: as above
Procedure: as §1

[17] = tested on: ACHN; assay: GI50 of drug in presence of dasatinib; higher = less potent
Procedure: as §1

[18] = tested on: 786-O; assay: as above
Procedure: as §1

[19] = tested on: TK-10; assay: as above
Procedure: as §1

[20] = tested on: UO-31; assay: as above
Procedure: as §1

[21] = tested on: SN12C; assay: as above
Procedure: as §1

[22] = tested on: CAKI-1; assay: as above
Procedure: as §1

[23] = tested on: A498; assay: as above
Procedure: as §1

[24] = tested on: 769-P; assay: as above
Procedure: as §1

| Compound | AUC of dose-response viability curve [1] | AUC of dose-response viability curve [2] | AUC of dose-response viability curve [3] | AUC of dose-response viability curve [4] | AUC of dose-response viability curve [5] | AUC of dose-response viability curve [6] | AUC of dose-response viability curve [7] | AUC of dose-response viability curve [8] | minimum viability across doses [9] | minimum viability across doses [10] | minimum viability across doses [11] | minimum viability across doses [12] | minimum viability across doses [13] | minimum viability across doses [14] | minimum viability across doses [15] | minimum viability across doses [16] | GI50 of drug [17] [nM] | GI50 of drug [18] [nM] | GI50 of drug [19] [nM] | GI50 of drug [20] [nM] | GI50 of drug [21] [nM] | GI50 of drug [22] [nM] | GI50 of drug [23] [nM] | GI50 of drug [24] [nM] |
| --- | --- | --- | --- | --- | --- | --- | --- | --- | --- | --- | --- | --- | --- | --- | --- | --- | --- | --- | --- | --- | --- | --- | --- | --- |
| Cc1cnc(Nc2ccc(OCCN3CCCC3)cc2)nc1Nc1cccc(S(=O)(=O)NC(C)(C)C)c1 + Cc1nc(Nc2ncc(C(=O)Nc3c(C)cccc3Cl)s2)cc(N2CCN(CCO)CC2)n1 [dasatinib] | 1.25 | 1.73 | 1.82 | 3.1 | 1.97 | 1.66 | 3.11 | 2.06 | 0.00238 | 0.0103 | 0.00313 | 0.00873 | 0.00825 | 0.00319 | 0.0831 | 0.0211 | 136 | 492 | 357 | 913 | 949 | 376 | 3500 | 1340 |
| Cc1[nH]c(/C=C2/C(=O)Nc3ccc(S(=O)(=O)N(C)c4cccc(Cl)c4)cc32)c(C)c1C(=O)N1CCN(C)CC1 + Cc1nc(Nc2ncc(C(=O)Nc3c(C)cccc3Cl)s2)cc(N2CCN(CCO)CC2)n1 [dasatinib] | 1.62 | 2.29 | 2.82 | 3.25 | 2.43 | 2.23 | 3.28 | 2.35 | 0.209 | 0.279 | 0.719 | 0.448 | 0.443 | 0.173 | 0.605 | 0.366 | 22 | 3950 | > 10000 | 9290 | 6070 | 3070 | > 10000 | 5760 |
| CC(C)(C)c1cnc(CSc2cnc(NC(=O)C3CCNCC3)s2)o1 + Cc1nc(Nc2ncc(C(=O)Nc3c(C)cccc3Cl)s2)cc(N2CCN(CCO)CC2)n1 [dasatinib] | 1.26 | 1.26 | 2.02 | 2.06 | 1.34 | 1.59 | 1.6 | 2.04 | 0.00387 | 0.00565 | 0.189 | 0.013 | 0.0108 | 0.034 | 0.00993 | 0.0223 | 157 | 55.8 | 476 | 429 | 134 | 131 | 129 | 1190 |
| CNC(=O)Nc1ccc(-c2nc(N3CC4CCC(C3)O4)c3cnn(C4CCC5(CC4)OCCO5)c3n2)cc1 + Cc1nc(Nc2ncc(C(=O)Nc3c(C)cccc3Cl)s2)cc(N2CCN(CCO)CC2)n1 [dasatinib] | 0.872 | 0.872 | 1.19 | 1.2 | 1.24 | 0.907 | 1.64 | 1.16 | 0.0427 | 0.00307 | 0.0572 | 0.00565 | 0.116 | 0.0306 | 0.0731 | 0.0698 | 9.64 | 10.7 | 32.5 | 38.8 | 32.3 | 16.7 | 121 | 36.6 |
| Nc1nc(N)c2nc(-c3cccc(O)c3)cnc2n1 + Cc1nc(Nc2ncc(C(=O)Nc3c(C)cccc3Cl)s2)cc(N2CCN(CCO)CC2)n1 [dasatinib] | 1.67 | 1.84 | 2.4 | 3.5 | 2.15 | 2.17 | 2.98 | 2.54 | 0.16 | 0.0115 | 0.269 | 0.0458 | 0.183 | 0.0946 | 0.222 | 0.647 | 285 | 220 | 3000 | 2960 | 1410 | 1760 | 4140 | > 10000 |
| Nc1ccc(C(=O)Nc2cccc(-c3nc(N4CCOCC4)c4oc5ncccc5c4n3)c2)cn1 + Cc1nc(Nc2ncc(C(=O)Nc3c(C)cccc3Cl)s2)cc(N2CCN(CCO)CC2)n1 [dasatinib] | 1.68 | 1.81 | 2.16 | 3.17 | 2.16 | 1.61 | 3.03 | 1.99 | 0.152 | 0.00383 | 0.0664 | 0.0122 | 0.345 | 0.0783 | 0.283 | 0.0371 | 361 | 476 | 973 | 1510 | 2590 | 256 | 6740 | 850 |
| O=C1c2ccccc2-c2n[nH]c3cccc1c23 + Cc1nc(Nc2ncc(C(=O)Nc3c(C)cccc3Cl)s2)cc(N2CCN(CCO)CC2)n1 [dasatinib] | 2.22 | 2.31 | 2.45 | 3.27 | 2.5 | 2.12 | 3.27 | 2.38 | 0.261 | 0.351 | 0.407 | 0.529 | 0.629 | 0.106 | 0.693 | 0.558 | 6750 | 5350 | 6490 | > 10000 | > 10000 | 2880 | > 10000 | > 10000 |
